The target of assay [1] is T1, proteasome in Molt-4 cells (human leukemia) (Homo sapiens, UniProt P20618+P28074).
T1 sequence (P28074 60-263): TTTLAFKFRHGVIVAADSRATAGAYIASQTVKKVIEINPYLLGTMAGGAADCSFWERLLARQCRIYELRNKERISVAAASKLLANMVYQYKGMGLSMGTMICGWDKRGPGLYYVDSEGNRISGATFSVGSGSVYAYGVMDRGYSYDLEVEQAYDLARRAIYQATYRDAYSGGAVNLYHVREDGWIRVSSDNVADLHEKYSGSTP
T1 sequence (P20618 29-241): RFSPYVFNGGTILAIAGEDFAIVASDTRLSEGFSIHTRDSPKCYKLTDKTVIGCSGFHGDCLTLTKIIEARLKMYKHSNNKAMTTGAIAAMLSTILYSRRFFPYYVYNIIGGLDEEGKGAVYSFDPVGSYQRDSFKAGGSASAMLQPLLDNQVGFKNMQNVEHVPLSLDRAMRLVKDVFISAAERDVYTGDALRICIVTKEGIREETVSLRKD
The assay is classed as cell-based. Particulars: assay of Example E, inhibition of MOLT4; read-out: MOLT4 (EC50). An outline of the steps:
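Intact Molt-4 cells (6×10^6 cells/mL) in HEPES-buffered saline were preincubated with inhibitor 15 min at 37 °C, then given cell-permeable MeOSuc-FLF-AFC at 25 μM final.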

In assay [2] the target is T2, 20S Human Erythrocyte Proteasome (HEP) (Homo sapiens, UniProt P20618+P28074).
T2 construct: 20S Human Erythrocyte Proteasome (HEP), purchased from Immatics Biotechnologies Inc; purchased Immatics Biotechnologies Inc., Tübingen, Germany; host or cells: human erythrocytes (natural source)
Description: Chymotrypsin-like activity of 20S Human Erythrocyte Proteasome (HEP), IC50 determination. To be noted: assay of Example C, inhibition of HEP. The assay is classed as biochemical. The method in brief:
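20S proteasome at 0.2 μg/mL (about 0.6 nM catalytic sites) in 20 mM Tris with 0.04% SDS, preincubated 15 min at 37° C with inhibitor before Suc-LLVY-AMC (100 μM final). AMC fluorescence read in the linear range; triplicates, IC50 from concentration series.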

Where only a bound is given, the exact number is not on record here.

The term EC50 denotes the concentration at which the effect is half-maximal. The IC50 is the concentration needed to halve the response being measured. On to `CC(C)C[C@H](NC(=O)[C@H](CCCNC(=N)N[N+](=O)[O-])NC(=O)CCSc1ccc2ccccc2c1)B(O)O` [E.2.48, Boronic acid, [(1R)-1-[[(2S)-5-[[imino(nitroamino)methyl]amino]-2-[[3-(naphthalen-2-ylsulfanyl)-propanoyl]amino]-1-oxopentyl]amino]-3-methylbutyl]], for which the EC50 in assay [1] lay within 0.2 to 2 µM. Further, the IC50 in assay [2] was below 0.01 µM.
On the same counts, the results for `CC(C)C[C@H](NC(=O)[C@H](CCCNC(=N)N[N+](=O)[O-])NC(=O)CSCc1ccccc1)B(O)O` [E.2.49, Boronic acid, [(1R)-1-[[(2S)-5-[[imino(nitroamino)methyl]amino]-2-[[2-[(phenylmethyl)sulfanyl]acetyl]amino]-1-oxopentyl]amino]-3-methylbutyl]] are above 10 µM and below 0.01 µM.
The like results for `CSCCC(=O)N[C@@H](CCCNC(=N)N[N+](=O)[O-])C(=O)N[C@@H](CC(C)C)B(O)O` [E.2.50, Boronic acid, [(1R)-1-[[(2S)-5-[[imino(nitroamino)methyl]amino]-2-[(3-Methylsulfanylpropanoyl)amino]-1-oxopentyl]amino]-3-methylbutyl]] were, in that order, above 10 µM and below 0.01 µM.
In the case of `CC(=O)N1CCC[C@H]1C(=O)N[C@@H](CCCNC(=N)N[N+](=O)[O-])C(=O)N[C@@H](CC(C)C)B(O)O` [E.2.51, Boronic acid, [(1R)-1-[[(2S)-5-[[imino(nitroamino)methyl]amino]-2-[((2S)-1-acetylpyrrolidine-2-carbonyl)amino]-1-oxopentyl]amino]-3-methylbutyl]], the EC50 in assay [1] was above 10 µM. This compound also showed an IC50 in assay [2] below 0.1 µM.
As to `CC(C)C[C@H](NC(=O)[C@H](CCCNC(=N)N[N+](=O)[O-])NC(=O)/C=C/c1ccccc1Br)B(O)O` [E.2.52, Boronic acid, [(1R)-1-[[(2S)-5-[[imino(nitroamino)methyl]amino]-2-[[trans-3-(2-bromophenyl)acryl]amino]-1-oxopentyl]amino]-3-methylbutyl]], the EC50 in assay [1] lay within 2 to 10 µM. The compound also yielded an IC50 in assay [2] below 0.01 µM.
On the same counts, the results for `CC(C)C[C@H](NC(=O)[C@H](CCCNC(=N)N[N+](=O)[O-])NC(=O)Cn1cnnn1)B(O)O` [E.2.53, Boronic acid, [(1R)-1-[[(2S)-5-[[imino(nitroamino)methyl]amino]-2-[[2-(tetrazol-1-yl)acetyl]amino]-1-oxopentyl]amino]-3-methylbutyl]] are above 10 µM and below 0.1 µM.
In the case of `CC(C)C[C@H](NC(=O)[C@H](CCCNC(=N)N[N+](=O)[O-])NC(=O)CSc1ncccn1)B(O)O` [E.2.54, Boronic acid, [(1R)-1-[[(2S)-5-[[imino(nitroamino)methyl]amino]-2-[[2-(pyrimidin-2-ylsulfanyl)acetyl]amino]-1-oxopentyl]amino]-3-methylbutyl]], the EC50 in assay [1] was above 10 µM. Besides, in assay [2], the IC50 is below 0.01 µM.
On the same counts, the results for `CCc1ccc(OCC(=O)N[C@@H](CCCNC(=N)N[N+](=O)[O-])C(=O)N[C@@H](CC(C)C)B(O)O)cc1` [E.2.55, Boronic acid, [(1R)-1-[[(2S)-5-[[imino(nitroamino)methyl]amino]-2-[[2-(4-ethylphenoxy)acetyl]amino]-1-oxopentyl]amino]-3-methylbutyl]] are 2 to 10 µM and below 0.01 µM.
In the case of `Cc1ccc(C)c(CC(=O)N[C@@H](CCCNC(=N)N[N+](=O)[O-])C(=O)N[C@@H](CC(C)C)B(O)O)c1` [E.2.56, Boronic acid, [(1R)-1-[[(2S)-5-[[imino(nitroamino)methyl]amino]-2-[[2-(2,5-dimethylphenyl)acetyl]amino]-1-oxopentyl]amino]-3-methylbutyl]], the EC50 in assay [1] was in the range of 2 to 10 µM. In addition, the IC50 in assay [2] was below 0.01 µM.
The like results for `CC(C)C[C@H](NC(=O)[C@H](CCCNC(=N)N[N+](=O)[O-])NC(=O)CCCCCCC(=O)c1ccccc1)B(O)O` [E.2.57, Boronic acid, [(1R)-1-[[(2S)-5-[[imino(nitroamino)methyl]amino]-2-[(8-oxo-8-phenyloctanoyl)amino]-1-oxopentyl]amino]-3-methylbutyl]] were, in that order, 2 to 10 µM and below 0.01 µM.
`CC(C)C[C@H](NC(=O)[C@H](CCCNC(=N)N[N+](=O)[O-])NC(=O)CSc1ccc2ccccc2c1)B(O)O` [E.2.58, Boronic acid, [(1R)-1-[[(2S)-5-[[imino(nitroamino)methyl]amino]-2-[[2-(2-naphthylsulfanyl)acetyl]amino]-1-oxopentyl]amino]-3-methylbutyl]]: in assay [1], the concentration for a half-maximal effect (EC50) was 2 to 10 µM. In assay [2], the IC50 was below 0.01 µM.
The like results for `Cc1ccc(/C=C/C(=O)N[C@@H](CCCNC(=N)N[N+](=O)[O-])C(=O)N[C@@H](CC(C)C)B(O)O)cc1` [E.2.60, Boronic acid, [(1R)-1-[[(2S)-5-[[imino(nitroamino)methyl]amino]-2-[[3-(4-methylphenyl)acryl]amino]-1-oxopentyl]amino]-3-methylbutyl]] were, in that order, 2 to 10 µM and below 0.01 µM.
On the same counts, the results for `COc1ccc(CCCC(=O)N[C@@H](CCCNC(=N)N[N+](=O)[O-])C(=O)N[C@@H](CC(C)C)B(O)O)cc1` [E.2.61, Boronic acid, [(1R)-1-[[(2S)-5-[[imino(nitroamino)methyl]amino]-2-[[4-(4-methoxyphenyl)-butanoyl]amino]-1-oxopentyl]amino]-3-methylbutyl]] are 2 to 10 µM and below 0.01 µM.
With `CC(C)C[C@H](NC(=O)[C@H](CCCNC(=N)N[N+](=O)[O-])NC(=O)Cc1ccsc1)B(O)O` [E.2.62, Boronic acid, [(1R)-1-[[(2S)-5-[[imino(nitroamino)methyl]amino]-2-[(2-thiophen-3-yl-acetyl)amino]-1-oxopentyl]amino]-3-methylbutyl]], in assay [1], the EC50 is above 10 µM. Further, the IC50 in assay [2] is below 0.01 µM.
With `CC(C)C[C@H](NC(=O)[C@H](CCCNC(=N)N[N+](=O)[O-])NC(=O)CCCC(=O)c1ccsc1)B(O)O` [E.2.64, Boronic acid, [(1R)-1-[[(2S)-5-[[imino(nitroamino)methyl]amino]-2-[[5-oxo-5-(thiophen-3-yl)pentanoyl]amino]-1-oxopentyl]amino]-3-methylbutyl]], the EC50 in assay [1] is above 10 µM. In assay [2], this compound gave an IC50 below 0.01 µM.
As for `CC(=O)N[C@@H](CCCNC(=N)N[N+](=O)[O-])C(=O)N[C@@H](CC(C)C)B(O)O` [E.2.65, Boronic acid, [(1R)-1-[[(2S)-5-[[imino(nitroamino)methyl]amino]-2-[(acetyl)amino]-1-oxopentyl]amino]-3-methylbutyl]], the EC50 in assay [1] is above 10 µM. Moreover, in assay [2], the IC50 is below 0.1 µM.
For the compound `CCSCC(=O)N[C@@H](CCCNC(=N)N[N+](=O)[O-])C(=O)N[C@@H](CC(C)C)B(O)O` [E.2.66, Boronic acid, [(1R)-1-[[(2S)-5-[[imino(nitroamino)methyl]amino]-2-[(2-ethylsulfanylacetyl)amino]-1-oxopentyl]amino]-3-methylbutyl]], the EC50 in assay [1] is above 10 µM. In assay [2], this compound registered an IC50 below 0.01 µM.
On the same counts, the results for `CC(C)C[C@H](NC(=O)[C@H](CCCNC(=N)N[N+](=O)[O-])NC(=O)CCCCCCCCCO)B(O)O` [E.2.67, Boronic acid, [(1R)-1-[[(2S)-5-[[imino(nitroamino)methyl]amino]-2-[(10-hydroxydecanoyl)amino]-1-oxopentyl]amino]-3-methylbutyl]] are 2 to 10 µM and below 0.01 µM.
Take `CSCC(=O)N[C@@H](CCCNC(=N)N[N+](=O)[O-])C(=O)N[C@@H](CC(C)C)B(O)O` [E.2.68, Boronic acid, [(1R)-1-[[(2S)-5-[[imino(nitroamino)methyl]amino]-2-[(2-methylsulfanylacetyl)amino]-1-oxopentyl]amino]-3-methylbutyl]]: in assay [1], the EC50 is above 10 µM. The compound also registered an IC50 in assay [2] below 0.01 µM.
On the same counts, the results for `CC(C)C[C@H](NC(=O)[C@H](CCCNC(=N)N[N+](=O)[O-])NC(=O)CCS(=O)(=O)c1ccccc1)B(O)O` [E.2.70, Boronic acid, [(1R)-1-[[(2S)-5-[[imino(nitroamino)methyl]amino]-2-[[3-(benzenesulfonyl)propanoyl]amino]-1-oxopentyl]amino]-3-methylbutyl]] are above 10 µM and below 0.01 µM.
On the same counts, the results for `CC(=O)NCCCCCC(=O)N[C@@H](CCCNC(=N)N[N+](=O)[O-])C(=O)N[C@@H](CC(C)C)B(O)O` [E.2.75, Boronic acid, [(1R)-1-[[(2S)-5-[[imino(nitroamino)methyl]amino]-2-[[6-(acetylamino)hexanoyl]amino]-1-oxopentyl]amino]-3-methylbutyl]] are above 10 µM and below 0.01 µM.
Turning to `CC(C)C[C@H](NC(=O)[C@H](CCCNC(=N)N[N+](=O)[O-])NC(=O)COc1ccc(Br)cc1)B(O)O` [E.2.77, Boronic acid, [(1R)-1-[[(2S)-5-[[imino(nitroamino)methyl]amino]-2-[[2-(4-bromophenoxy)acetyl]amino]-1-oxopentyl]amino]-3-methylbutyl]], the EC50 in assay [1] is 2 to 10 µM. For the same compound, in assay [2], the IC50 was below 0.01 µM.
